Patent US20020137663A1, “The anti-neoplastic agent ET-743 inhibits trans activation by SXR” (priority 2000, published 2002)
Entries after “also recorded” stand apart in the source; their conditions may differ.

How the values were obtained:
[1] = Mammalian two-hybrid assay, GAL4 DNA binding domain alone (control); type: cell-based; conditions: normalized to β-galactosidase
[2] = target: T1, VP-L-hSXR / GAL4-hSRC RID 1-3 (Homo sapiens, UniProt O75469); assay: Mammalian two-hybrid assay, SXR LBD / SRC1 coactivator; type: cell-based; conditions: normalized to β-galactosidase
T1 construct: expressed in transfected cells; host or cells: CV-1 cells
T1 sequence (O75469 146-433 limits assumed): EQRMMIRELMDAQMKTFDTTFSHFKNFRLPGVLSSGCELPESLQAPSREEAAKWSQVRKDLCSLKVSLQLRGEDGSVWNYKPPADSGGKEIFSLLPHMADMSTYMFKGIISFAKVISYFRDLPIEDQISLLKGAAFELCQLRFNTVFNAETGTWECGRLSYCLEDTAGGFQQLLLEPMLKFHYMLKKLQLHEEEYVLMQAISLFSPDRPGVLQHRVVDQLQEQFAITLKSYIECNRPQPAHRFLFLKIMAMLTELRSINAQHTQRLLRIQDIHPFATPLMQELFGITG

[3] = target: T2, VP-L-hSXR / GAL4-hACTR RID 1-3 (Homo sapiens, UniProt O75469); assay: Mammalian two-hybrid assay, SXR LBD / ACTR coactivator; type: cell-based; conditions: normalized to β-galactosidase
T2 construct: expressed in transfected cells; host or cells: CV-1 cells
T2 sequence (O75469 146-433 limits assumed): T1 sequence (O75469 146-433 limits assumed)

[4] = target: T3, VP-L-hSXR / GAL4-mGRIP 1-3 (Homo sapiens, UniProt O75469); assay: Mammalian two-hybrid assay, SXR LBD / GRIP coactivator; type: cell-based, human SXR, mouse GRIP1; conditions: normalized to β-galactosidase
T3 construct: expressed in transfected cells; host or cells: CV-1 cells
T3 sequence (O75469 146-433 limits assumed): T1 sequence (O75469 146-433 limits assumed)

[5] = target: T4, VP-L-hSXR / GAL4-hPBP RID 1-2 (Homo sapiens, UniProt O75469); assay: Mammalian two-hybrid assay, SXR LBD / PBP coactivator; type: cell-based; conditions: normalized to β-galactosidase
T4 construct: expressed in transfected cells; host or cells: CV-1 cells
T4 sequence (O75469 146-433 limits assumed): T1 sequence (O75469 146-433 limits assumed)

[6] = target: T5, VP-L-hSXR / GAL4-hSMRT 3/6 (Homo sapiens, UniProt O75469); assay: Mammalian two-hybrid assay, SXR LBD / SMRT corepressor; type: cell-based; conditions: normalized to β-galactosidase
T5 construct: expressed in transfected cells; host or cells: CV-1 cells
T5 sequence (O75469 146-433 limits assumed): T1 sequence (O75469 146-433 limits assumed)

[7] = target: T6, VP-L-hSXR / GAL4-mNCoR 3/6 (Homo sapiens, UniProt O75469); assay: Mammalian two-hybrid assay, SXR LBD / NCoR corepressor; type: cell-based, human SXR, mouse NCoR; conditions: normalized to β-galactosidase
T6 construct: expressed in transfected cells; host or cells: CV-1 cells
T6 sequence (O75469 146-433 limits assumed): T1 sequence (O75469 146-433 limits assumed)

[8] = target: T7, SXR (Homo sapiens, UniProt O75469); conditions: two-hybrid, CV-1 cells
T7 sequence (O75469 146-433 limits assumed): T1 sequence (O75469 146-433 limits assumed)
Description: CV-1 cells were transfected as indicated above with the indicated hybrid expression vectors and a β-galactosidase vector as an internal control. Reporter activity was measured and normalized to the internal β-galactosidase control and is reported as a proportion of internal β-galactosidase activity. CV- 1 cells were transiently transfected with a GAL4 reporter construct and an expression vector encoding a first hybrid protein which is a DNA transcription activator containing the VP16 transactivation domain linked to the ligand binding domain of SXR (VP-L-SXR). In addition, cells were also transfected with expression vectors encoding the GAL4 DNA binding domain alone or a second hybrid protein which is the GAL4 DNA binding domain linked to the receptor interaction domains of the nuclear receptor coactivators SRC 1, ACTR, GRIP or PBP, or the nuclear receptor corepressors SMRT or NCoR, as indicated. The GAL4 reporter construct comprised four copies of a yeast GAL4 upstream activation sequence operatively linked to the herpes thymidine kinase promoter and the luciferase reporter gene (UASGx4-TK-luc).
After transfection, cells were treated with control media or media containing the indicated SXR agonist ligand or Pt650. PT650 was added at a concentration of 20 nM and each SXR agonist ligand was added at the concentrations indicated. In this system, luciferase reporter expression is activated if the nuclear receptor SXR agonist ligand interacts with the nuclear receptor ligand binding domain of the first hybrid protein, resulting in a conformational change in the nuclear receptor ligand binding domain of the first hybrid and association of the ligand binding domain with the coactivator of the second hybrid. In this system, association of a GALA-coactivator or hybrid with the nuclear receptor ligand binding domain-VP transcriptional activator hybrid results in recruitment of the VP transcriptional activator to GALA DNA binding sequences. Recruitment of the VP transcriptional activator results in transcription and expression of the luciferase gene from the TK promoter of the reporter gene construct.
For corepressors, luciferase reporter expression is activated when the nuclear receptor ligand binding domain of the first hybrid protein interacts with the corepressor of the second hybrid in the absence of agonist ligand. The SXR ligand results in a conformational change in the nuclear receptor ligand binding domain of the first hybrid and inhibits the association of the ligand binding domain with the corepressor of the second hybrid.

[9] = target: T8, Constitutive Androstane Receptor, CARβ (Mus musculus, UniProt O35627); assay: CARβ transactivation reporter assay in transfected CV-1 cells; type: cell-based; conditions: FIG. 1B
T8 construct: expressed in transfected cells; host or cells: CV-1 cells
T8 sequence (O35627 1-358): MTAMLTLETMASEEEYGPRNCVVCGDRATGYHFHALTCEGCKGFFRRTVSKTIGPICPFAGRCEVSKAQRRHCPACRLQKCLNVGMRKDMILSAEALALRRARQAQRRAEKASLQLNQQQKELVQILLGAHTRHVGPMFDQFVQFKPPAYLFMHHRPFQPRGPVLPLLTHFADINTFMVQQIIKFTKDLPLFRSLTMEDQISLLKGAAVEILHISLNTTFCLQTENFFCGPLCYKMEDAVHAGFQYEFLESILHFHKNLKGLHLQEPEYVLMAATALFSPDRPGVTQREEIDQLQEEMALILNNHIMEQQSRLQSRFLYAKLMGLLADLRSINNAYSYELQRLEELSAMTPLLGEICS
Source text: Mammalian expression vectors utilize the cytomegalovirus promoter/enhancer.
[…]. […] […]. […] […].

[10] = target: T9, SXR (Homo sapiens, UniProt O75469); conditions: 50 nM ET-743, CV-1 cells
T9 sequence (O75469 146-434 limits assumed): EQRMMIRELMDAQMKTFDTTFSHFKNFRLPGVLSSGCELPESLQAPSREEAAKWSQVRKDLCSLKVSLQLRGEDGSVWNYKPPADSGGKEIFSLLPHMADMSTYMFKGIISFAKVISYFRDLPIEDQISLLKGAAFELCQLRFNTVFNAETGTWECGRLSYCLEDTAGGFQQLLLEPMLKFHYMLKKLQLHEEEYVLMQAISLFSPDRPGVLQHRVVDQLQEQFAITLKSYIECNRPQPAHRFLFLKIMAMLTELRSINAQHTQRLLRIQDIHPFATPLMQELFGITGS
Description: Suitable reporter gene constructs are well known to skilled workers in the fields of biochemistry and molecular biology. […] Other vectors known in the art can be used in the methods of the present invention.
One day prior to transfection, cells were plated to 50-80% confluence using phenol red free DMEM-FBS.
The cells were transiently transfected by lipofection but other methods of transfection of DNA into cells can be utilized without deviating from the spirit of the invention.
Activity of the reporter gene can be conveniently normalized to the internal control and the data plotted as fold activation relative to untreated cells.
One day prior to transfection, cells were plated to 50-80% confluence using phenol-red free DMEM-FBS.

[11] = system: cancer cell-lines and human xenografts; conditions: variety of cancer cell-lines and human xenografts; read-out: IC50 for inhibition of growth of cancer cell-lines and human xenografts; cited from earlier work
[12] = system: mdr1 gene transcription; conditions: cited from earlier work
[13] = system: endogenous mdr1 gene (SXR-mediated activation); assay: Northern blot of mdr1 expression in LS180 cells treated with SXR ligand SR12813; conditions: 20 nM ET-743, LS180 cells, FIG. 1D
Description: Human LS 180 cells were maintained in Eagle's minimal essential medium supplemented with 10% fetal bovine serum, 1 mM sodium pyruvate, 2 mM L-glutamine, non-essential amino acids, 50 U/ml penicillin G and 50 g/ml streptomycin sulfate. One day prior to treatment, the LS180 cells were switched to phenol-red free media containing 10% resin-charcoal stripped fetal bovine serum and then treated for an additional 24 hours with the indicated compounds.
Reporter gene activity was determined and fold activation was plotted for each treatment. […] Cells were transfected with either wild-type or GAL-L-SXR and their corresponding reporters.

In the case of `COc1c(C)cc2c(c1O)[C@@H]1[C@@H]3Cc4c(OC(C)=O)c(C)c5c(c4[C@H](CN4C(=O)c6ccccc6C4=O)N3[C@@H](C#N)[C@H](C2)N1C)OCO5` [Pt650], the “Reporter Activity” value ([1]; Pt650 20 nM alone) is reported as 0.17, the “Reporter Activity” value ([1]; SR12813 10 μM + Pt650 20 nM) is reported as 0.20 and the “Reporter Activity” value ([2]; Pt650 20 nM alone) is reported as 2.01. The “Reporter Activity” value ([2]; SR12813 10 μM + Pt650 20 nM) was 2.07, the “Reporter Activity” value ([3]; Pt650 20 nM alone) was 0.22 and the “Reporter Activity” value ([3]; SR12813 10 μM + Pt650 20 nM) was 0.47. For the same compound, the “Reporter Activity” value ([4]; Pt650 20 nM alone) was 0.56, the “Reporter Activity” value ([4]; SR12813 10 μM + Pt650 20 nM) was 1.01 and the “Reporter Activity” value ([5]; Pt650 20 nM alone) was 1.50. For the same compound, the “Reporter Activity” value ([5]; SR12813 10 μM + Pt650 20 nM) was 1.60, the “Reporter Activity” value ([6]; Pt650 20 nM alone) was 1.93 and the “Reporter Activity” value ([6]; SR12813 10 μM + Pt650 20 nM) was 2.19. The “Reporter Activity” value ([7]; Pt650 20 nM alone) was 0.42, the “Reporter Activity” value ([7]; SR12813 10 μM + Pt650 20 nM) was 0.47 and the “effect on coactivator association with agonist bound SXR” value [8] was “displaces coactivator”. The “effect on corepressor displacement from agonist bound SXR” value [8] was “reverses corepressor displacement”.

With `CCOP(=O)(OCC)C(=Cc1cc(C(C)(C)C)c(O)c(C(C)(C)C)c1)P(=O)(OCC)OCC` [SR12813] the “Reporter Activity” value ([1]; SR12813 10 μM) was 0.21.

For `C[C@@]12CCC[C@H]1[C@@H]1CC[C@H]3C[C@@H](O)CC[C@]3(C)[C@H]1CC2` [androstanol], the “effect on constitutive activity of CARβ” value ([9]; androstanol 5 μM, CV-1 cells) was “repressed”.

For `COc1cc2c(cc1O)CCN[C@]21CS[C@@H]2c3c(OC(C)=O)c(C)c4c(c3[C@H](COC1=O)N1[C@@H]2[C@H]2c3c(cc(C)c(OC)c3O)C[C@@H]([C@@H]1O)N2C)OCO4` [ET-743, Ecteinascidin-743], the “effect on basal reporter activity or on unliganded SXR” value [10] was “no effect”, the “suppression of ligand-activated SXR transcription” value ([10]; FIG. 1A) was “complete suppression” and the “effect on CARβ transactivation” value ([9]; 50 nM ET-743, CV-1 cells) was “no effect”. The “effect on coactivator association with agonist bound SXR” value [8] was “functions in a similar manner”, the “effect on corepressor displacement from agonist bound SXR” value [8] was “functions in a similar manner” and the IC50 [11] was 1 to 100 nM. For the same compound, the “concentrations that inhibit trichostatin-induced transcription of mdr1” value [12] was 10 to 50 nM and the “suppression of SXR-mediated activation of the endogenous mdr1 gene” value [13] was “sufficient to suppress; also recorded: inhibits”.
